Test results from paper PMC9548544, “Population pharmacokinetic model of vancomycin in postoperative neurosurgical patients” (Frontiers in Pharmacology, 2022).

Tests used:
[1] = Therapeutic drug monitoring of vancomycin serum concentration (chemiluminescence immunoassay); type: in vivo, human; settings: mostly steady state (>4 doses) trough, 895 observations from 560 patients, dose 951.19 ± 152.23 mg/time, SD
Description: Inclusion criteria were: 1) age ≥18 years; 2) therapeutic drug monitoring was performed during treatment and at least 1 vancomycin concentration was obtained. Exclusion criteria were: 1) pregnant women ([Lin et al., 2021]); 2) cystic fibrosis ([Jing et al., 2020]).
(§1) The dosage regimen of vancomycin is adjusted by the clinicians according to the patient’s conditions and renal function, including 1 g Qd, 1 g Q12h, 1 g Q8h, 0.5 g Qd, 0.5 g Q12h, 0.5 g Q8h and 0.5 g Q6h. The infusion time cannot be accurately obtained, but 1 h infusion was most used in clinical applications, so the default infusion time in this study was 1 h. Vancomycin serum concentrations were obtained from patient’s therapeutic drug monitoring data, most of which were steady state (>4 doses) trough concentrations. The blood samples were anticoagulated by Ethylene Diamine Tetraacetic Acid, centrifuged at 5,000 rpm for 3 min and analyzed by chemiluminescence immunoassay (ADVIA Centaur® XP, Siemens). Sample calibration and quality control were carried out in accordance with the manufacturer’s instructions and the calibration range was 0.67–90 mg/L.

[2] = fixed, not estimated, ref Jing et al., 2020, cited from earlier work
[3] = ref Rybak, 2006, cited from earlier work
[4] = ref Lin Wu et al., 2015; cited from earlier work
[5] = Population pharmacokinetic (NLME, one-compartment) model of vancomycin in postoperative neurosurgical patients
Description: The data of patients who received vancomycin therapy from October 2018 to March 2022 in Beijing Tiantan Hospital, Capital Medical University were retrospectively collected. Inclusion criteria were: 1) age ≥18 years; 2) therapeutic drug monitoring was performed during treatment and at least 1 vancomycin concentration was obtained. Exclusion criteria were: 1) pregnant women ([Lin et al., 2021]); 2) cystic fibrosis ([Jing et al., 2020]).
as §1
In this study, nonlinear mixed effects modeling (NLME) method was used to construct the PPK model. Pharmacokinetic parameters and the variability were assessed using the first-order conditional estimation with extended least square method (FOCE-ELS) by using the Phoenix® NLME software (version 8.3; Certara, St. Louis, Missouri). Bootstrap and visual predictive check (VPC) were used to test the stability and predictive ability of the final model.
The one-compartment model with first-order elimination was used to describe the pharmacokinetic characteristics of vancomycin. The sparse trough concentration data led to the inaccurate estimation of the V. Therefore, the population typical value of V was fixed at 60.2 L according to a PPK model in Chinese neurosurgery adult patients ([Jing et al., 2020]).
Inter-individual variability (η) of PPK model was described by exponential random effect model in Eq. 1. Residual variability (ε) was described by combined (multiplicative and additive) error model in Eq. 2. The η was assumed to follow a normal distribution with a mean of zero and a variance of ω ^2. The ε was assumed to follow a normal distribution with a mean of zero and a variance of σ ^2. θi=θTV×e^ηi, (1) Cobs=Cpred+ε×1+(Cpred×σ1/σ2)^2 (2) where θ TV is the population typical value of pharmacokinetic parameters, θ i is the individual (i ^th) pharmacokinetic parameters. Cobs and Cpred respectively represent the measured concentration and predicted concentration of a patient; σ 1 represents the multiplicative σ, and σ 2 represents the standard deviation of ε.
Continuous covariates included age, height, BW, body mass index, serum creatinine (Scr), creatinine clearance (CLcr) and estimated glomerular filtration rate (eGFR). Categorical covariates included sex, RRT and concomitant drugs (mannitol, meropenem and diuretics). CLcr is calculated by the Cockcroft-Gault equation ([Cockcroft and Gault, 1976]). eGFR is calculated by the Chronic Kidney Disease Epidemiology Collaboration (CKD-EPI) equation ([Kong et al., 2013]). All continuous covariates are centered at their median values. The difference of the objective function value (OFV) was used to compare the models.
After the establishment of the base model, the effects of covariates on pharmacokinetic parameters were tested by forward addition and backward elimination under stepwise manner. In the forward addition, if the decrease of OFV was greater than 6.64 (p < 0.01, df = 1), the covariate was considered to have a significant influence on the model parameters.

## CN[C@H](CC(C)C)C(=O)N[C@H]1C(=O)N[C@@H](CC(N)=O)C(=O)N[C@H]2C(=O)N[C@H]3C(=O)N[C@H](C(=O)N[C@H](C(=O)O)c4cc(O)cc(O)c4-c4cc3ccc4O)[C@H](O)c3ccc(c(Cl)c3)Oc3cc2cc(c3O[C@@H]2O[C@H](CO)[C@@H](O)[C@H](O)[C@H]2O[C@H]2C[C@](C)(N)[C@H](O)[C@H](C)O2)Oc2ccc(cc2Cl)[C@H]1O [vancomycin, Vancomycin]
[1]
  Concentration (mg/L), mean ± standard deviation: 14.20 ± 7.36 mg/L
[2]; base model
  V (L), base model: 60.2 L
[2]; bootstrap
  V (L), Bootstrap: 60.2 L
[2]; final model
  V (L), apparent distribution volume, final model: 60.2 L
[3]; oral
  absorption by oral administration: almost not absorbed
[3]; patients with normal renal function, printed as 'approximately'
  α half-life: 0.5 to 1 h
[3]; patients with normal renal function
  terminal elimination half-life: 3 to 9 h
[3]; printed as 'about'
  protein binding rate: 10%–50%
[3]; within 24 h after administration
  share of vancomycin excreted in prototype through the kidney: more than 80%
[4]
  V in another eligible study: 54 ± 17 L
[5]; A in e^A of the CL equation when co-medicated with mannitol, final model
  Mannitol on CL (L/h), final model, Estimate (%RSE): 0.13 (17.85) L/h
[5]; A in e^A when co-medicated with mannitol, bootstrap, 5,000 data sets
  Mannitol on CL (L/h), Bootstrap Median (%RSE): 0.13 (17.72) L/h
[5]; base model without covariates
  CL (L/h), base model, Estimate (%RSE): 8.08 (1.93) L/h
[5]; bootstrap of final model, 5,000 data sets
  CL (L/h), Bootstrap Median (%RSE): 7.97 (2.24) L/h
[5]; exponent of (BW/70) in the CL equation, final model
  BW on CL (L/h), final model, Estimate (%RSE): 0.30 (20.19) L/h
[5]; exponent of (BW/70), bootstrap, 5,000 data sets
  BW on CL (L/h), Bootstrap Median (%RSE): 0.30 (19.91) L/h
[5]; exponent of (eGFR/115.2), bootstrap, 5,000 data sets
  eGFR on CL (L/h), Bootstrap Median (%RSE): 0.80 (4.39) L/h
[5]; final model, one-compartment, FOCE-ELS, 895 concentrations from 560 patients, iv infusion, covariates centred at eGFR 115.2, BW 70, no mannitol
  CL (L/h), population typical value, final model, Estimate (%RSE): 7.98 (1.90) L/h
[5]; final model, with versus without mannitol
  increase in vancomycin CL when co-medicated with mannitol: 14%
[5]; this study, postoperative neurosurgical patients
  typical value of vancomycin CL per body weight: 1.83 mL/min/kg
